Measurements published in ChEMBL document CHEMBL5120866, “Design and Synthesis of Novel Celastrol Derivatives as Potential Anticancer Agents against Gastric Cancer Cells” (J Nat Prod, 2022).
Calls of active or inactive are those of the source. No cut-off for these calls is given here.

Columns and labels:
[1] = system: BGC-823; assay: Antiproliferative activity against human BGC-823 cells assessed as cell growth inhibition incubated for 48 hrs by MTT assay; format: functional, cell-based; details: BGC-823, 48 h
[2] = system: MCF7; assay: Antiproliferative activity against human MCF7 cells assessed as cell growth inhibition incubated for 48 hrs by MTT assay; format: functional, cell-based; details: MCF7, 48 h
[3] = system: HeLa; assay: Antiproliferative activity against human HeLa cells assessed as cell growth inhibition incubated for 48 hrs by MTT assay; format: functional, cell-based
[4] = system: BGC-823; assay: Induction of ROS generation in human BGC-823 cells assessed as increase in intracellular ROS level incubated for 24 hrs by DCFH-DA staining based fluorescence microscopic analysis; format: functional, cell-based; details: dose 0.3-0.6 µM, DDE = dose-dependent effect
[5] = system: BGC-823; assay: Induction of JNK phosphorylation in human BGC-823 cells at 0.15 to 0.6 uM incubated for 24 hrs by Western blot analysis; format: functional, cell-based; details: dose 0.15-0.6 µM
[6] = system: BGC-823; assay: Induction of mitochondrial dysfunction in human BGC-823 cells assessed as […] by measuring increase in green fluorescence at 0.15 to 0.6 uM incubated for 24 hrs by inverted fluorescent microscopic analysis; format: functional, cell-based; details: dose 0.15-0.6 µM
[7] = system: BGC-823; assay: Induction of apoptosis in human BGC-823 cells assessed as increase in cleaved PARP expression at 0.15 to 0.6 uM incubated for 24 hrs by Western blot analysis; format: functional, cell-based; details: dose 0.15-0.6 µM
[8] = system: BGC-823; assay: Induction of apoptosis in human BGC-823 cells assessed as increase in cleaved-caspase 9 expression at 0.15 to 0.6 uM incubated for 24 hrs by Western blot analysis; format: functional, cell-based; details: dose 0.15-0.6 µM
[9] = system: BGC-823; assay: Induction of apoptosis in human BGC-823 cells assessed as viable cells at 0.15 uM incubated for 24 hrs by annexin-V-FITC and PI staining based flow cytometry analysis (reference value: 96.3%); format: functional; details: read-out: Activity
[10] = system: BGC-823; assay: Induction of apoptosis in human BGC-823 cells assessed as viable cells at 0.3 uM incubated for 24 hrs by annexin-V-FITC and PI staining based flow cytometry analysis (reference value: 96.3%); format: functional; details: read-out: Activity
[11] = system: BGC-823; assay: Induction of apoptosis in human BGC-823 cells assessed as viable cells at 0.6 uM incubated for 24 hrs by annexin-V-FITC and PI staining based flow cytometry analysis (reference value: 96.3%); format: functional; details: read-out: Activity
[12] = system: BGC-823; assay: Induction of apoptosis in human BGC-823 cells assessed as early apoptotic cells at 0.6 uM incubated for 24 hrs by annexin-V-FITC and PI staining based flow cytometry analysis (reference value: 2.4%); format: functional
[13] = system: BGC-823; assay: Induction of apoptosis in human BGC-823 cells assessed as late apoptotic cells at 0.15 uM incubated for 24 hrs by annexin-V-FITC and PI staining based flow cytometry analysis (reference value: 0.6%); format: functional
[14] = system: BGC-823; assay: Induction of apoptosis in human BGC-823 cells assessed as late apoptotic cells at 0.3 uM incubated for 24 hrs by annexin-V-FITC and PI staining based flow cytometry analysis (reference value: 0.6%); format: functional
[15] = system: BGC-823; assay: Induction of apoptosis in human BGC-823 cells assessed as late apoptotic cells at 0.6 uM incubated for 24 hrs by annexin-V-FITC and PI staining based flow cytometry analysis (reference value: 0.6%); format: functional
[16] = system: BGC-823; assay: Induction of apoptosis in human BGC-823 cells assessed as necrotic cells at 0.3 uM incubated for 24 hrs by annexin-V-FITC and PI staining based flow cytometry analysis (reference value: 0.6%); format: functional
[17] = system: BGC-823; assay: Induction of apoptosis in human BGC-823 cells assessed as necrotic cells at 0.6 uM incubated for 24 hrs by annexin-V-FITC and PI staining based flow cytometry analysis (reference value: 0.6%); format: functional
[18] = system: BGC-823; assay: Induction of apoptosis in human BGC-823 cells assessed as reduction in total number of cells at 0.15 to 0.6 uM incubated for 24 hrs by Hoechst 33342 staining based flourescence microscopy method; format: functional, cell-based; details: dose 0.15-0.6 µM
[19] = system: BGC-823; assay: Downregulation of cyclin B1 protein expression in human BGC-823 cells at 0.15 to 0.6 uM incubated for 24 hrs by Western blot analysis; format: functional, cell-based; details: dose 0.15-0.6 µM
[20] = system: BGC-823; assay: Downregulation of Cdc2 protein expression in human BGC-823 cells at 0.15 to 0.6 uM incubated for 24 hrs by Western blot analysis; format: functional, cell-based; details: dose 0.15-0.6 µM
[21] = system: BGC-823; assay: Induction of cell cycle arrest in human BGC-823 cells assessed as accumulation of cells at G0/G1 phase at 0.15 uM incubated for 24 hrs by PI staining based flow cytometry method (reference value: 50.66%); format: functional
[22] = system: BGC-823; assay: Induction of cell cycle arrest in human BGC-823 cells assessed as accumulation of cells at G0/G1 phase at 0.6 uM incubated for 24 hrs by PI staining based flow cytometry method (reference value: 50.66%); format: functional
[23] = system: BGC-823; assay: Induction of cell cycle arrest in human BGC-823 cells assessed as accumulation of cells at S phase at 0.15 uM incubated for 24 hrs by PI staining based flow cytometry method (reference value: 26.01%); format: functional
[24] = system: BGC-823; assay: Induction of cell cycle arrest in human BGC-823 cells assessed as accumulation of cells at S phase at 0.3 uM incubated for 24 hrs by PI staining based flow cytometry method (reference value: 26.01%); format: functional
[25] = system: BGC-823; assay: Induction of cell cycle arrest in human BGC-823 cells assessed as accumulation of cells at S phase at 0.6 uM incubated for 24 hrs by PI staining based flow cytometry method (reference value: 26.01%); format: functional
[26] = system: BGC-823; assay: Induction of cell cycle arrest in human BGC-823 cells assessed as accumulation of cells at G2/M phase at 0.15 uM incubated for 24 hrs by PI staining based flow cytometry method (reference value: 22.86%); format: functional
[27] = system: BGC-823; assay: Induction of cell cycle arrest in human BGC-823 cells assessed as accumulation of cells at G2/M phase at 0.3 uM incubated for 24 hrs by PI staining based flow cytometry method (reference value: 22.86%); format: functional
[28] = system: BGC-823; assay: Antitumor activity against human BGC-823 cells xenografted in athymic BALB/c nude mouse assessed as tumor growth inhibition rate at 1.5 mg/kg, ip measured every 2 days for 21 days by curson caliper method relative to control; format: functional; details: BGC-823, 504 h, time 21 day, read-out: TGI
[29] = Toxicity in athymic BALB/c nude mouse assessed as change in body weight at 1.5 mg/kg, ip measured every 2 days for 21 days; format: organism-based; details: in vivo, 504 h, time 21 day
[30] = Toxicity in athymic BALB/c nude mouse assessed as effect on spleen at 1.5 mg/kg, ip measured after 21 days by H and E staining based histopathological analysis; format: organism-based; details: in vivo, 504 h, time 21 day
[31] = Toxicity in athymic BALB/c nude mouse assessed as effect on kidney at 1.5 mg/kg, ip measured after 21 days by H and E staining based histopathological analysis; format: organism-based; details: in vivo, 504 h, time 21 day
[32] = system: BGC-823; assay: Antitumor activity against human BGC-823 cells xenografted in athymic BALB/c nude mouse assessed as increase in cell necrosis at 1.5 mg/kg, ip measured after 21 days by H and E staining based analysis; format: functional, organism-based; details: time 21.0 day
[33] = system: BGC-823; assay: Antiproliferative activity against human BGC-823 cells assessed as cell growth inhibition at 0.5 uM incubated for 48 hrs by MTT assay relative to control; format: functional

In the case of `CCOC(=O)c1cnn(CCCOC(=O)[C@]2(C)CC[C@]3(C)CC[C@]4(C)C5=CC=C6C(=CC(=O)C(O)=C6C)[C@]5(C)CC[C@@]4(C)[C@@H]3C2)c1`, the IC50 [1] is reported as 210 nM, the IC50 [2] is reported as 390 nM and the IC50 [3] is reported as 480 nM. The Activity [4] was “Dde”, the Activity [5] was “Active” and the Activity [6] was “Active”. For the same compound, the Activity [7] was “Active”, the Activity [8] was “Active” and the viability at 0.15 µM [9] was 94.9%. For the same compound, the viability at 0.3 µM [10] was 78.2%, the viability at 0.6 µM [11] was 50.9% and the Activity [12] was 26%. It also gave an Activity [13] of 0.5%, an Activity [14] of 4.8% and an Activity [15] of 21.7%. For the same compound, the Activity [16] was 0.4%, the Activity [17] was 1.5% and the Activity [18] was “Active”. For the same compound, the Activity [19] was “Active”, the Activity [20] was “Active” and the Activity [21] was 48.17%. It also gave an Activity [22] of 37.39%, an Activity [23] of 26.07% and an Activity [24] of 23.91%. For the same compound, the Activity [25] was 24.75%, the Activity [26] was 23.89% and the Activity [27] was 27.71%. The inhibition in vivo at 1.5 mg/kg [28] was 89.8%, the Activity [29] was “Non-Toxic” and the Activity [30] was “Non-Toxic”. For the same compound, the Activity [31] was “Non-Toxic”, the Activity [32] was “Active” and the inhibition at 0.5 µM [33] was > 50%.
